Data reported in EP3383875B1, “3-PYRIMIDINYL PYRROLO [2,3-B] PYRIDINE AS ANTICANCER AGENTS AND THE PROCESS FOR THE PREPARATION THEREOF” (Council Of Scientific & Industrial Research, priority 2015, dated 2017).
Where two headings read alike, the source gives them in different places.

Key:
[1] = system: MCF-7; experiment: MTT assay on cancer cell line MCF-7; type: cell-based, Human; settings: for inhibition at 10 µM: Homo sapiens; for In vitro cell inhibition, % of inhibition, MCF-7: at 10µM
Procedure: (§1) Cell culture, growth conditions and treatments. […] Different molecules were dissolved in DMSO and were delivered to cell cultures in complete medium.

[2] = system: HCT-116; experiment: MTT assay on cancer cell line HCT-116; type: cell-based, human; settings: for inhibition at 10 µM: Homo sapiens
Procedure: as §1

[3] = target: CDK-2/cyclin A (Homo sapiens, UniProt P24941); experiment: CDK inhibition assay, CDK-2/cyclin A against Histone HI, 33P-ATP; type: biochemical; settings: at 500 nM
How it was run: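 CDK-2/cyclin A (5-20 mU) phosphorylating Histone HI (1 mg/ml) in 50 mM Hepes pH 7.5, 100 mM NaCl, 10 mM Mg acetate, 0.02 mM [33P-γ-ATP], 30 min at room temperature. Stopped with orthophosphoric acid, captured on P81 filters for radiometric readout.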

[4] = system: SHSY-5Y; experiment: MTT assay on cancer cell line SHSY-5Y; type: cell-based, human; settings: for inhibition at 10 µM: Homo sapiens, SH-SY5Y; for In vitro cell inhibition, % of inhibition, SHSY-5Y: at 10µM
Procedure: as §1

[5] = system: MDA-MB435; experiment: MTT assay on cancer cell line MDA-MB435; type: cell-based, Human; settings: for inhibition at 10 µM: Homo sapiens, MDA-MB-435
Procedure: as §1

[6] = system: PC-3; experiment: MTT assay on cancer cell line PC-3; type: cell-based, human; settings: for inhibition at 10 µM: Homo sapiens; for In vitro cell inhibition, % of inhibition, PC-3: at 10µM
Procedure: as §1

[7] = target: CDK-9/Cyclin T1 (Homo sapiens, UniProt P50750); experiment: CDK inhibition assay, CDK-9/Cyclin T1 against substrate peptide, 33P-ATP; type: biochemical; settings: at 500 nM
Chain of CDK-9/Cyclin T1 (P50750 whole entry): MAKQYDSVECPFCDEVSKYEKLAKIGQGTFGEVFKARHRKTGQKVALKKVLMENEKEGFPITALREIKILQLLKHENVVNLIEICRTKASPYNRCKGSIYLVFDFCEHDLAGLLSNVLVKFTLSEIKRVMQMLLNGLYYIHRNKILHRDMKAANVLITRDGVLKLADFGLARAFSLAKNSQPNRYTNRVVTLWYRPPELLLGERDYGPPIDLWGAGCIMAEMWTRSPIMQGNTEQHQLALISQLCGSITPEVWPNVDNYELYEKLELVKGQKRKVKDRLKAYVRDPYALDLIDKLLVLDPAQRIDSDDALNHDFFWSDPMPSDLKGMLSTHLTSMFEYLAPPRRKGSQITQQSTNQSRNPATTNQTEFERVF
Chain of CDK-9/Cyclin T1 (O60563 whole entry partner): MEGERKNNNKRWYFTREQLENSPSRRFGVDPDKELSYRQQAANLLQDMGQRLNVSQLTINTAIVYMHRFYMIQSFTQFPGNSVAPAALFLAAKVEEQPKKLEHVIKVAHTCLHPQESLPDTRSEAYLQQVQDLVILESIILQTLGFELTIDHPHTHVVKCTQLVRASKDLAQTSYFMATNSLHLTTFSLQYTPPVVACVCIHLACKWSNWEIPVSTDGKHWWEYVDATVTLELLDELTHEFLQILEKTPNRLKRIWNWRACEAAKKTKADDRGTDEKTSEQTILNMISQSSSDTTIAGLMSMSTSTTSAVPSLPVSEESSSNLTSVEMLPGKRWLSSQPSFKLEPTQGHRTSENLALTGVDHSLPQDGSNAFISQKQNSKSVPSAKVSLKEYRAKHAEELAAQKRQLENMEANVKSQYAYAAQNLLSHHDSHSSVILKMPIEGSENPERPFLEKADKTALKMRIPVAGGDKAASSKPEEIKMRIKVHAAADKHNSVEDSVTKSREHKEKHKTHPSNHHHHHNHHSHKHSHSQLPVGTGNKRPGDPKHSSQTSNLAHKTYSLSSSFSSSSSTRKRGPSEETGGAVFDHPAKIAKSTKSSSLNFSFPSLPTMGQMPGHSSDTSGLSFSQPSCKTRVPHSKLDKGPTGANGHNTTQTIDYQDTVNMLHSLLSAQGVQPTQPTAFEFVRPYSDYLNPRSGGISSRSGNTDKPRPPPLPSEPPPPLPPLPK
Procedure: (50-1000 cpm/pmole) and incubated for 30 min at room temperature. Assays were stopped by addition of 5 µl of 0.5 M (3%) orthophosphoric acid and then harvested onto P81 Unifilter plates with a wash buffer of 50 mM orthophosphoric acid.

[8] = MCF7, MCF-7, Table 8, read-out: In vitro cell inhibition, % of inhibition, MCF-7
[9] = MCF7, read-out: inhibition against MCF-7 cell lines
[10] = at 10µM, Table 8, read-out: In vitro cell inhibition, % of inhibition, HCT-116
[11] = Table-6, read-out: In vitro CDK2 % of inhibition
[12] = SHSY-5Y, Table 8, read-out: In vitro cell inhibition, % of inhibition, SHSY-5Y
[13] = read-out: inhibition against SHSY-5Y cell lines
[14] = MDA-MB435, at 10µM, Table 8, read-out: In vitro cell inhibition, % of inhibition, MDA-MB435
[15] = Table 8, read-out: In vitro cell inhibition, % of inhibition, PC-3
[16] = Table-6, read-out: In vitro CDK9 % of inhibition
[17] = Table-7, read-out: In vitro CDK2 % of inhibition
[18] = read-out: inhibition against CDK2
[19] = Table-7, read-out: In vitro CDK9 % of inhibition
[20] = read-out: inhibition against CDK9
[21] = at 10 µM, read-out: inhibition against HCT-116 cell lines
[22] = at 10 µM, read-out: inhibition against MDAMB-435 cell lines
[23] = read-out: inhibition against PC-3 cell lines

| Structure (SMILES) | inhibition at 0.5 µM [3, 11] [%] | inhibition at 0.5 µM [7, 16] [%] | inhibition at 0.5 µM [3, 17] [%] | inhibition at 0.5 µM [3, 18] [%] | inhibition at 0.5 µM [7, 19] [%] | inhibition at 0.5 µM [7, 20] [%] | inhibition at 10 µM [1, 8] [%] | inhibition at 10 µM [1, 9] [%] | inhibition at 10 µM [2, 10] [%] | inhibition at 10 µM [4, 12] [%] | inhibition at 10 µM [4, 13] [%] | inhibition at 10 µM [5, 14] [%] | inhibition at 10 µM [6, 15] [%] | inhibition at 10 µM [2, 21] [%] | inhibition at 10 µM [5, 22] [%] | other results |
| --- | --- | --- | --- | --- | --- | --- | --- | --- | --- | --- | --- | --- | --- | --- | --- | --- |
| Cc1cccc(-c2cnc3[nH]cc(-c4ccnc(N)n4)c3c2)c1 [1C7, 4-(5-(m-tolyl)-1H-pyrrolo[2,3-b]pyridin-3-yl)pyrimidin-2-amine] |  |  | > 70 | > 70 | > 70 | > 70 |  | > 50 |  |  | > 70 |  |  |  |  | inhibition at 10 µM ([1]; MCF7, MCF-7, Table 9 (for reference), read-out: In vitro cell inhibition, % of inhibition, MCF-7): > 50%; inhibition at 10 µM ([2]; at 10µM, Table 9 (for reference), read-out: In vitro cell inhibition, % of inhibition, HCT-116): > 70%; inhibition at 10 µM ([4]; SHSY-5Y, Table 9 (for reference), read-out: In vitro cell inhibition, % of inhibition, SHSY-5Y): > 70%; inhibition at 10 µM ([5]; MDA-MB435, at 10µM, Table 9 (for reference), read-out: In vitro cell inhibition, % of inhibition, MDA-MB435): > 70%; inhibition at 10 µM ([6]; Table 9 (for reference), read-out: In vitro cell inhibition, % of inhibition, PC-3): > 50% |
| Fc1cccc(-c2cnc3[nH]cc(-c4ccnc(NCCc5ccccc5)n4)c3c2)c1 [1B5, 4-(5-(3-fluorophenyl)-1H-pyrrolo[2,3-b]pyridin-3-yl)-N-phenethylpyrimidin-2-amine] |  |  | > 50 |  | > 50 |  | > 50 | > 50 | > 50 | > 70 | > 70 | > 50 | > 50 |  |  | inhibition at 10 µM [6, 23]: > 50% |
| Clc1ccc(-c2cnc3[nH]cc(-c4ccnc(NCCc5ccccc5)n4)c3c2)cc1 [1B12, 4-(5-(4-chlorophenyl)-1H-pyrrolo[2,3-b]pyridin-3-yl)-N-phenethylpyrimidin-2-amine] |  |  | > 70 | > 70 | > 70 | > 70 | > 50 |  | > 50 | > 70 | > 70 | < 50 | > 70 |  |  |  |
| c1ccc2c(-c3cnc4[nH]cc(-c5ccnc(NC6CC6)n5)c4c3)cccc2c1 [1A14, N-cyclopropyl-4-(5-(naphthalen-1-yl)-1H-pyrrolo[2,3-b]pyridin-3-yl)pyrimidin-2-amine] | > 50 | > 50 |  | > 50 |  | > 50 | > 70 | > 70 | > 70 | > 70 | > 70 | > 70 | > 70 | > 70 | > 70 |  |
| Nc1nccc(-c2c[nH]c3ncccc23)n1 [Meriolin 1, reference compound] |  |  |  |  |  |  |  |  |  |  |  |  |  |  |  | In vitro cell inhibition, % of inhibition, MCF-7 ([1]; Table 8): ++ (++ indicates greater than 50% of inhibition (++ >50% of inhibition)); In vitro cell inhibition, % of inhibition, MCF-7 ([1]; Table 9 (for reference)): ++ (++ indicates greater than 50% of inhibition (++ > 50% of inhibition)); In vitro cell inhibition, % of inhibition, HCT-116 ([2]; at 10µM, Table 8): ++ (++ indicates greater than 50% of inhibition (++ >50% of inhibition)); In vitro cell inhibition, % of inhibition, HCT-116 ([2]; at 10µM, Table 9 (for reference)): ++ (++ indicates greater than 50% of inhibition (++ > 50% of inhibition)); In vitro cell inhibition, % of inhibition, SHSY-5Y ([4]; SHSY-5Y, Table 8): +++ (+++ indicates greater than 70% of inhibition (+++ >70% of inhibition)); In vitro cell inhibition, % of inhibition, SHSY-5Y ([4]; SHSY-5Y, Table 9 (for reference)): +++ (+++ indicates greater than 70% of inhibition (+++ >70% of inhibition)); In vitro cell inhibition, % of inhibition, MDA-MB435 ([5]; MDA-MB435, at 10µM, Table 8): ++ (++ indicates greater than 50% of inhibition (++ >50% of inhibition)); In vitro cell inhibition, % of inhibition, MDA-MB435 ([5]; MDA-MB435, at 10µM, Table 9 (for reference)): ++ (++ indicates greater than 50% of inhibition (++ > 50% of inhibition)); In vitro cell inhibition, % of inhibition, PC-3 ([6]; Table 8): ++ (++ indicates greater than 50% of inhibition (++ >50% of inhibition)); In vitro cell inhibition, % of inhibition, PC-3 ([6]; Table 9 (for reference)): ++ (++ indicates greater than 50% of inhibition (++ > 50% of inhibition)); In vitro CDK9 % of inhibition ([7]; Table-6): +++ (+++ indicates greater than 70% of inhibition (+++ >70% of inhibition)) |
| COc1ccc(-c2cnc3[nH]cc(-c4ccnc(NCCc5ccccc5)n4)c3c2)cc1 [1B11, 4-(5-(4-methoxyphenyl)-1H-pyrrolo[2,3-b]pyridin-3-yl)-N-phenethylpyrimidin-2-amine] |  |  | > 50 | > 50 | > 50 | > 50 | > 50 | > 50 | > 50 | > 50 |  | > 50 | < 50 |  |  |  |

Second part, led by results:

| inhibition at 0.5 µM [3, 11] [%] | inhibition at 0.5 µM [7, 16] [%] | inhibition at 0.5 µM [3, 17] [%] | inhibition at 0.5 µM [3, 18] [%] | inhibition at 0.5 µM [7, 19] [%] | inhibition at 0.5 µM [7, 20] [%] | Structure (SMILES) | inhibition at 10 µM [1, 8] [%] | inhibition at 10 µM [1, 9] [%] | inhibition at 10 µM [2, 10] [%] | inhibition at 10 µM [4, 12] [%] | inhibition at 10 µM [4, 13] [%] | inhibition at 10 µM [5, 14] [%] | inhibition at 10 µM [6, 15] [%] | inhibition at 10 µM [2, 21] [%] | inhibition at 10 µM [5, 22] [%] | other results |
| --- | --- | --- | --- | --- | --- | --- | --- | --- | --- | --- | --- | --- | --- | --- | --- | --- |
| < 50 | < 50 |  |  |  |  | FC(F)(F)c1ccc(-c2cnc3[nH]cc(-c4ccnc(NC5CCCCCC5)n4)c3c2)cc1 [1A41, N-cycloheptyl-4-(5-(4-(trifluoromethyl)phenyl)-1H-pyrrolo[2,3-b]pyridin-3-yl)pyrimidin-2-amine] | > 50 | > 50 | > 50 | > 70 | > 70 | < 50 | < 50 |  |  |  |
| > 70 | > 70 |  | > 70 |  | > 70 | Fc1cccc(-c2cnc3[nH]cc(-c4ccnc(NC5CC5)n4)c3c2)c1 [1A5, N-cyclopropyl-4-(5-(3-fluorophenyl)-1H-pyrrolo[2,3-b]pyridin-3-yl)pyrimidin-2-amine] | > 70 | > 70 | > 70 | > 70 | > 70 | > 70 | > 70 | > 70 | > 70 |  |
| > 70 | > 50 |  |  |  |  | FC(F)(F)Oc1ccc(-c2cnc3[nH]cc(-c4ccnc(NC5CCCC5)n4)c3c2)cc1 [1A23, N-cyclopentyl-4-(5-(4-(trifluoromethoxy)phenyl)-1H-pyrrolo[2,3-b]pyridin-3-yl)pyrimidin-2-amine] | > 50 | > 50 | > 50 | > 70 | > 70 | < 50 | > 50 |  |  |  |
| > 70 | > 70 |  | > 70 |  | > 70 | COc1ccc(-c2cnc3[nH]cc(-c4ccnc(NC5CC5)n4)c3c2)cc1 [1A11, N-cyclopropyl-4-(5-(4-methoxyphenyl)-1H-pyrrolo[2,3-b]pyridin-3-yl)pyrimidin-2-amine] | > 70 | > 70 | > 70 | > 70 | > 70 | > 70 | > 50 | > 70 | > 70 | inhibition at 10 µM [6, 23]: > 50% |
|  |  | > 70 | > 70 | > 70 | > 70 | COc1ccc(-c2cnc3[nH]cc(-c4ccnc(NC5CCCCCC5)n4)c3c2)cc1 [1A51, N-cycloheptyl-4-(5-(4-methoxyphenyl)-1H-pyrrolo[2,3-b]pyridin-3-yl)pyrimidin-2-amine] | > 70 | > 70 | > 50 | > 50 |  | < 50 | < 50 |  |  |  |
| > 50 | > 50 |  | > 50 |  | > 50 | c1cncc(-c2cnc3[nH]cc(-c4ccnc(NC5CC5)n4)c3c2)c1 [1A15, N-cyclopropyl-4-(5-(pyridin-3-yl)-1H-pyrrolo[2,3-b]pyridin-3-yl)pyrimidin-2-amine] | > 70 | > 70 | > 70 | > 70 | > 70 | > 70 | > 50 | > 70 | > 70 | inhibition at 10 µM [6, 23]: > 50% |
